Consider 30 compounds from patent publication US20110230467A1, “4,6-DIAMINONICOTINAMIDE COMPOUND” (Astellas Pharma Inc., priority 2008, published 2011).

In the experiment the target is T1, human JAK3 kinase domain (Homo sapiens, UniProt P52333).
T1 construct: attached to the N-terminal of the 796-1124 (C-terminal) fragment of the human JAK3 protein; His-tag (N); purchased Carna Biosciences, Inc. (Kobe, Japan); host or cells: baculovirus expression system
As to the kind of experiment: JAK3 Inhibition Test (Test Example 1). The note with it: purified human JAK3 kinase domain; 20 μM ATP in substrate solution; absorbance at 450 nm; read-out: IC50 (JAK3 inhibitory activity). The class given is biochemical. An excerpt:
(1) Preparation of Human JAK3
Purified human JAK3 kinase domain was purchased from Carna Biosciences, Inc. (Kobe, Japan). This was afforded as described below. His-tag (41 kDa) was attached to the N-terminal of the 796-1124 (C-terminal) fragment of the human JAK3 protein (accession number #NM_000215), expressed using a baculovirus expression system, and then purified using Ni-NTA affinity column chromatography.
(2) Measurement of JAK3 Activity
As substrates, Biotin-Lyn-Substrate-2 (Biotin-XEQED EPEGF YFEWL EPE), X=ε-Acp (Peptide Institute, Inc., Osaka, Japan) and ATP were used. As an assay buffer, 15 mM Tris-HCl, pH 7.5, containing 0.01% Tween 20, and 2 mM DTT (dithiothreitol) was used. Normally, 20 μL of a substrate solution (an assay buffer containing 627 nM Biotin-Lyn-Substrate-2, 20 μM ATP, and 25 mM MgCl2), an assay buffer containing 10 μL of a compound to be tested, and 20 μL of an enzyme solution were added to a microplate, and stirred sufficiently.
After incubation at room temperature for one hour, the plate was washed with a cleaning buffer (50 mM Tris-HCl pH 7.5, 150 mM NaCl, 0.02% Tween 20), and a blocking buffer (a cleaning buffer containing 0.1% Bovine Serum Albumin) was added to the plate. After incubation at room temperature for 30 minutes, the blocking buffer was removed, and an HRP-PY-20 solution (afforded by diluting the HRP-PY-20 solution with the blocking buffer 500 times) was added. After incubation at room temperature for 30 minutes, the plate was washed four times, and a TMB substrate solution (Sigma) was added to the plate. After incubation at room temperature for 4 minutes, 1 M sulfuric acid was added to stop the reaction. Enzyme activity was measured as an absorbance at 450 nm. The JAK3 inhibitory activity of the test compound was calculated assuming that the concentration of the test compound inhibiting JAK3 activity by 50% is an IC50 value.

By IC50 is commonly meant the point on the concentration scale where inhibition reaches its midpoint.

T1 sequence (P52333 796-1124): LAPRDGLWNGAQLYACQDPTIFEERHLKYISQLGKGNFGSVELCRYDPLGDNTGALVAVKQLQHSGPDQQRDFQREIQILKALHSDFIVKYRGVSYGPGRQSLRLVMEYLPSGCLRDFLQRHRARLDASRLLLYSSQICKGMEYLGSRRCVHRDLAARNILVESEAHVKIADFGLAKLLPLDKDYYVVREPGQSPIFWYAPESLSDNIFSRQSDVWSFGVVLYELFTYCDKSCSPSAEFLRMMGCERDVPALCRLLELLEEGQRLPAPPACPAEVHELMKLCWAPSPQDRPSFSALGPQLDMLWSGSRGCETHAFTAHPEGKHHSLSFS

In the case of `N#Cc1ccc(N2CC[C@@H](Nc3cc(Nc4cnccn4)ncc3C(N)=O)[C@@H](F)C2)nc1` [Example 5-7], the IC50 came to 0.21 nM. The value for `Cc1nccc(Nc2cc(NC3CCN(c4ccc(C#N)cc4)CC3)c(C(N)=O)cn2)n1` [Example 5-8] was 0.8 nM. The value for `Cc1nccc(Nc2cc(NC3CCN(c4ccc(C#N)cn4)CC3)c(C(N)=O)cn2)n1` [Example 5-9] was 0.36 nM; that for `N#Cc1ccc(N2CC[C@@H](Nc3cc(Nc4ccncn4)ncc3C(N)=O)[C@@H](F)C2)nc1` [Example 5-10] was 0.29 nM; that for `N#Cc1ccc(N2CC[C@@H](Nc3cc(Nc4cnccn4)ncc3C(N)=O)[C@@H](F)C2)nn1` [Example 5-11] was 0.34 nM. `N#Cc1cnc(N2CC[C@@H](Nc3cc(Nc4ccncn4)ncc3C(N)=O)[C@@H](F)C2)cn1` [Example 5-15]: the half-inhibitory concentration (IC50) was found to be 1 nM. The value for `N#Cc1ccc(N2CCC(Nc3cc(Nc4ccncn4)ncc3C(N)=O)CC2)nn1` [Example 5-18] was 1.1 nM. Next, `Cc1cnc(Nc2cc(NC3CCN(c4ccc(C#N)nn4)CC3)c(C(N)=O)cn2)cn1` [Example 5-22]: 2 nM. The value for `N#Cc1ccc(N2CCC(Nc3cc(Nc4ccncn4)ncc3C(N)=O)CC2)cn1` [Example 5-25] was 0.24 nM; that for `Cc1nccc(Nc2cc(N[C@@H]3CCN(c4ccc(C#N)cn4)C[C@@H]3F)c(C(N)=O)cn2)n1` [Example 5-26] was 0.39 nM.

For the compound `N#Cc1ccc(N2CCC(Nc3cc(Nc4ccc(N5CCCC5=O)cn4)ncc3C(N)=O)CC2)nc1` [Example 5-46], the IC50 is 0.86 nM. Next, `N#Cc1ccc(N2CC[C@@H](Nc3cc(Nc4ccc(N5CCCCC5=O)cn4)ncc3C(N)=O)[C@@H](F)C2)nc1` [Example 5-55]: 0.74 nM; `N#Cc1ccc(N2CCC(Nc3cc(Nc4ccc(N5C(=O)[C@H]6CC[C@@H]5C6)cn4)ncc3C(N)=O)CC2)nc1` [Example 5-67]: 0.9 nM. Next, `N#Cc1ccc(N2CC[C@@H](Nc3cc(Nc4ccccn4)ncc3C(N)=O)[C@@H](F)C2)nc1` [Example 5-72]: 0.14 nM. The value for `COCc1ccc(Nc2cc(N[C@@H]3CCN(c4ccc(C#N)cn4)C[C@@H]3F)c(C(N)=O)cn2)nc1` [Example 5-73] was 0.24 nM. Regarding `NC(=O)c1cnc(Nc2ccc(C(=O)N3CCCC3)cn2)cc1NCc1c(F)cccc1F` [Example 8-6], the half-maximal inhibitory concentration (IC50) amounted to 0.74 nM.

With `COC1CCN(C(=O)c2ccc(Nc3cc(NCc4c(F)cccc4F)c(C(N)=O)cn3)nc2)CC1` [Example 8-7], the IC50 worked out at 0.8 nM. Next, `CN1CCN(C(=O)c2ccc(Nc3cc(NCc4c(F)cccc4F)c(C(N)=O)cn3)nc2)CC1` [Example 8-8]: 1 nM. Regarding `CN1CCCN(C(=O)c2ccc(Nc3cc(NCc4c(F)cccc4F)c(C(N)=O)cn3)nc2)CC1` [Example 8-9], the concentration for half-maximal inhibition (IC50) turned out to be 1.6 nM. Next, `NC(=O)c1cnc(Nc2cnccn2)cc1NCc1c(F)ccc(F)c1F` [Example 12-50]: 1 nM.

On to `NC(=O)c1cnc(Nc2ccc(N3CCCCC3=O)cn2)cc1NCc1c(F)ccc(F)c1F` [Example 12-54], for which the IC50 stood at 0.69 nM. Next, `CN1CCN(c2ccc(Nc3cc(NCc4c(F)ccc(F)c4F)c(C(N)=O)cn3)nc2)C(=O)C1` [Example 12-73]: 0.58 nM. Next, `CN1CCC(=O)N(c2ccc(Nc3cc(NCc4c(F)ccc(F)c4F)c(C(N)=O)cn3)nc2)CC1` [Example 12-74]: 0.74 nM; `NC(=O)c1cnc(Nc2ccc(N3CCOCC3=O)cn2)cc1NCc1c(F)ccc(F)c1F` [Example 12-76]: 0.43 nM.

With `NC(=O)c1cnc(Nc2ccc(N3C(=O)[C@@H]4CC[C@H]3C4)cn2)cc1NCc1c(F)ccc(F)c1F` [Example 12-78], the IC50 was determined as 0.69 nM. The value for `NC(=O)c1cnc(Nc2ccc(N3CCCCCC3=O)cn2)cc1NCc1c(F)ccc(F)c1F` [Example 12-79] was 0.79 nM. On to `NC(=O)c1cnc(Nc2ccc(N3C(=O)[C@H]4CC[C@@H]3C4)cn2)cc1NCc1c(F)ccc(F)c1F` [Example 12-80], for which the IC50 came to 0.69 nM.

Regarding `NC(=O)c1cnc(Nc2ccc(N3CCOCCC3=O)cn2)cc1NCc1c(F)ccc(F)c1F` [Example 12-81], the IC50 amounted to 0.56 nM. `CN1C(=O)N(c2ccc(Nc3cc(NCc4c(F)ccc(F)c4F)c(C(N)=O)cn3)nc2)C(=O)C1(C)C` [Example 12-91]: the IC50 came out at 0.44 nM. Regarding `CN1CCC(=O)N(c2ccc(Nc3cc(NCc4c(F)cccc4F)c(C(N)=O)cn3)nc2)CC1` [Example 12-97], the half-inhibitory concentration (IC50) turned out to be 0.25 nM.
